Source: ChEMBL document CHEMBL5729163, “Substituted cyclohexyl compounds as NOP inhibiiors” (2022)

Molecular target: Nociceptin receptor (Homo sapiens, UniProt P41146)
Test: Cell-Based NOP Assay: Formula (I) compounds were tested for antagonism of the nociceptin receptor (NOP) in a cell-based cAMP assay, using the LANCE cAMP Detection Kit, Perkin Elmer (Waltham, Mass.). This assay (LANCE cAMP) is a homogeneous, time-resolved fluorescence resonance energy transfer (TR-FRET) immunoassay designed to measure cAMP produced upon modulation of adenylyl cyclase activity by G protein-coupled receptors (GPCRs).ProtocolCells expressing human opioid NOP (ValiScreen cell line, cat #ES-230-C Perkin Elmer (Waltham, Mass.) were dispensed in simulation buffer (5 mM Hepes, 0.1% BSA, 0.5 mM IBMX in Hanks Buffered Saline Solution) at 2.5 μL cells per well (400 cells/well) into a 1536 white TC-treated assay plate. Compound was then added and plates were incubated for 15 minutes at room temperature. To each well was added 2.5 μL of a solution containing forskolin (3 μM final) and nociceptin peptide (390 pM final) diluted in stimulation buffer, and the plates were incubated for 30 minutes at room temperature. To each well was dispensed 5 μL of LANCE Ultra detection (1:300 dilution of anti-cAMP ULight with a 1:100 dilution of Eu-cAMP tracer diluted in cAMP Detection Buffer) reagent, and the plates were incubated for 1 hr at room temperature. The plate was then read on the ViewLux microplate reader (Perkin Elmer, Waltham, Mass.) using the LANCE 1536 protocol with 60 second exposure times and 50 μs delay. This protocol has an excitation wavelength of 340 nm (DUG11 filter) and emission wavelengths of 615 nm (Eu-Donor) and 665 nm (Alexa 647 cAMP antibody acceptor).Data AnalysisData was analyzed, normalized, and visualized using ACAS (John McNeil & Co.). Efficacy was calculated using activity of the vehicle (DMSO) as 0% efficacy and the activity of the corresponding reference positive control (SCH 221510, Tocris Bioscience (Pittsburgh, Pa.), Catalog number 3240) as 100% efficacy. Activity was calculated as the ratio of donor and acceptor emissions. All curve fits and IC50 determinations were performed using a non-linear regression model. The IC50 value was measured as the concentration at which half-maximal response was calculated.

Nociceptin receptor, sequence (P41146 whole entry): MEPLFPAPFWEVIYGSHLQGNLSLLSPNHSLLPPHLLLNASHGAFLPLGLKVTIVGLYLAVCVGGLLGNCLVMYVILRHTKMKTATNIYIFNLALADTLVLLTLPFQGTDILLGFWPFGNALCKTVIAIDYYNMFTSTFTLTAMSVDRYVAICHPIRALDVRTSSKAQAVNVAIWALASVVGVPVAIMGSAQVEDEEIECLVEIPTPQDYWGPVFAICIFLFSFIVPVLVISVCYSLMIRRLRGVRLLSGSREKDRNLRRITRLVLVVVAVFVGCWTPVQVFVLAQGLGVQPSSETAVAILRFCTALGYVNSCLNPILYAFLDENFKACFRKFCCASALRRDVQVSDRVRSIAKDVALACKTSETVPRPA

Compared with `Fc1ccc(C2CCC(CCNC3CCCC3)CC2)c(F)c1` (stereo unspecified), `Cc1cc(F)ccc1C1CCC(CCNC2CCCC2)CC1` (stereo unspecified) is lower in IC50: 10 to 100 nM for the first, 1 to 10 nM for the second. The second is the more potent here.

`CNC(=O)C1(NCC[C@H]2CC[C@H](c3ncc(F)cc3Cl)CC2)CCOCC1` and `CCNC(=O)C1(NCC[C@H]2CC[C@@H](c3ccc(F)cc3Cl)CC2)CCOCC1` fall in the same range of IC50: 1 to 10 nM for the first, 1 to 10 nM for the second.

`Fc1cc(Cl)ccc1C1CCC(CCNC2CCOCC2)CC1` (stereo unspecified) and `Fc1ccc([C@H]2CC[C@@H](CCNC3CCOCC3)CC2)c(F)c1` fall in the same range of IC50: 1 to 10 nM for the first, 1 to 10 nM for the second.

`CN(C)C(=O)C1(NCC[C@H]2CC[C@@H](c3ccc(F)cc3Cl)CC2)CCCC1` and `NC(=O)C1(NCCC2CCC(c3cc(F)ccc3Cl)CC2)CCCC1` (stereo unspecified) fall in the same range of IC50: 100 to 1000 nM for the first, 100 to 1000 nM for the second.

Compared with `Fc1ccc([C@H]2CC[C@H](CCNC3CCOCC3)CC2)c(Cl)c1`, `Fc1ccc(C2CCC(CCNC3CCOCC3)CC2)c(Cl)c1` (mixture of isomers) is lower in IC50: 1 to 10 nM for the first, under 1 nM for the second.

First: Fc1ccc(Cl)c(C2CCC(CCNC3CCCCC3)CC2)c1 (stereo unspecified)
Second: Fc1cc(Cl)ccc1C1CCC(CCNC2CCCC2)CC1 (stereo unspecified)
The IC50 of the first is higher: 100 to 1000 nM for the first, 10 to 100 nM for the second.

First: NC(=O)C1(NCC[C@H]2CC[C@H](c3ccc(F)cc3F)CC2)CCOCC1
Second: NC(=O)C1(NCC[C@H]2CC[C@H](c3ccc(F)cc3C(F)(F)F)CC2)CCOCC1
The IC50 of the first is higher: 100 to 1000 nM for the first, 10 to 100 nM for the second.

First: Cc1c(F)c(F)ccc1[C@H]1CC[C@@H](CCNC2(C(N)=O)CCOCC2)CC1
Second: NC(=O)C1(NCC[C@H]2CC[C@@H](c3cccc(F)c3Cl)CC2)CCOCC1
The IC50 of the first is lower: 10 to 100 nM for the first, 100 to 1000 nM for the second. The first is the more potent here.

`CC(=O)N1CCC(NCC[C@H]2CC[C@@H](c3ccc(F)cc3Cl)CC2)CC1` and `CC(=O)N1CCC(NCC[C@H]2CC[C@@H](c3ccc(F)cc3Cl)CC2)C1` (stereo partly specified) fall in the same range of IC50: 10 to 100 nM for the first, 10 to 100 nM for the second.

`Cc1cc(F)c(F)cc1[C@H]1CC[C@@H](CCN[C@@H]2CCNC(=O)C2)CC1` and `O=C1C[C@H](NCC[C@H]2CC[C@H](c3ncc(F)cc3Cl)CC2)CCN1` fall in the same range of IC50: 1 to 10 nM for the first, 1 to 10 nM for the second.

`CC1(NCCC2CCC(c3ccccc3Cl)CC2)CCOCC1` (stereo unspecified) and `CC1(NCCC2CCC(c3ccccc3Cl)CC2)CCCC1` (stereo unspecified) fall in the same range of IC50: 100 to 1000 nM for the first, 100 to 1000 nM for the second.

First: Cc1cc(F)ccc1C1CCC(CCNC2CCOCC2)CC1 (stereo unspecified)
Second: Cc1cc(F)ccc1[C@H]1CC[C@@H](CCNC2CCOCC2)CC1
The IC50 of the first is higher: 1 to 10 nM for the first, under 1 nM for the second.

First: CCNC(=O)C1(NCC[C@H]2CC[C@@H](c3ccc(F)cc3C(F)(F)F)CC2)CCOCC1
Second: Cc1cc(F)ccc1C1CCC(CCNC2(C)CCOCC2)CC1 (stereo unspecified)
The IC50 of the first is lower: 1 to 10 nM for the first, 100 to 1000 nM for the second. The first is the more potent here.

Compared with `Cc1cc(F)ccc1C1CCC(CCNC2(C)CCCC2)CC1` (stereo unspecified), `CC1(NCCC2CCC(c3ccc(F)cc3F)CC2)CCCC1` (stereo unspecified) is higher in IC50: 10 to 100 nM for the first, 100 to 1000 nM for the second. The first is the more potent here.

Compared with `Fc1ccc([C@H]2CC[C@H](CCNC3CCOCC3)CC2)c(F)c1`, `Oc1cccc([C@H]2CC[C@H](CCNC3CCOCC3)CC2)c1` is higher in IC50: 1 to 10 nM for the first, 100 to 1000 nM for the second. The first is the more potent here.

First: O=C1NCCC1NCC[C@H]1CC[C@@H](c2ccc(F)cc2Cl)CC1 (stereo partly specified)
Second: Fc1ccc([C@H]2CC[C@@H](CCNC3CCCC3(F)F)CC2)c(Cl)c1 (stereo partly specified)
The IC50 of the first is lower: 1 to 10 nM for the first, 10 to 100 nM for the second.

Compared with `N#C[C@H]1CC[C@@H](NCC[C@H]2CC[C@@H](c3ccc(F)cc3C(F)(F)F)CC2)CC1`, `CN1CCC(NCCC2CCC(c3ccc(Cl)cc3F)CC2)CC1` (stereo unspecified) is higher in IC50: under 1 nM for the first, 100 to 1000 nM for the second. The first is the more potent here.

First: CN1CCC(NCCC2CCC(c3c(F)cccc3Cl)CC2)CC1 (stereo unspecified)
Second: Fc1cccc(Cl)c1C1CCC(CCNC2CCCC2)CC1 (stereo unspecified)
The IC50 of the first is higher: 100 to 1000 nM for the first, 1 to 10 nM for the second. The second is the more potent here.

Compared with `Cc1cnccc1[C@H]1CC[C@H](CCNC2CCOCC2)CC1`, `Cc1cccnc1C1CCC(CCNC2CCOCC2)CC1` (stereo unspecified) is lower in IC50: 100 to 1000 nM for the first, 10 to 100 nM for the second.

First: CC1(NCCC2CCC(c3c(F)cccc3Cl)CC2)CCCC1 (stereo unspecified)
Second: Cc1cccnc1C1CCC(CCNC2(C)CCCC2)CC1 (stereo unspecified)
The IC50 of the first is lower: 10 to 100 nM for the first, 100 to 1000 nM for the second.

First: NC(=O)C1(NCC[C@H]2CC[C@H](c3c(F)cc(F)cc3Cl)CC2)CCOCC1
Second: NC(=O)C1(NCC[C@H]2CC[C@@H](c3c(F)cc(F)cc3F)CC2)CCOCC1
The IC50 of the first is lower: 1 to 10 nM for the first, 100 to 1000 nM for the second.

`NC(=O)C1(NCCC2CCC(c3ccccc3Cl)CC2)CCCC1` (stereo unspecified) and `NC(=O)N1CCC(NCCC2CCC(c3ncc(F)cc3Cl)CC2)CC1` (stereo unspecified) fall in the same range of IC50: 100 to 1000 nM for the first, 100 to 1000 nM for the second.

`Cc1nccnc1[C@H]1CC[C@@H](CCNC2CCOCC2)CC1` and `CC1(NCC[C@H]2CC[C@@H](c3ncc(F)cc3Cl)CC2)CCNC(=O)C1` (stereo partly specified) fall in the same range of IC50: 100 to 1000 nM for the first, 100 to 1000 nM for the second.
